This is an account of results in ChEMBL document CHEMBL1201862, “PubChem BioAssay data set” (2004).

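A five-concentration, 48-hour dose response in 96-well plates underlies each endpoint, interpolated linearly between surrounding concentrations. GI50: concentration for 50% inhibition of growth.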 The source made the active and inactive calls. No stated cut-off is given here; in the data, active = GI50 up to about 1.1 µM and inactive = higher. Some results are limits rather than exact numbers.

A word on the GI50: it is the concentration giving 50% growth inhibition.

Some test systems named below: HT-29; A498; CCRF-CEM; MOLT-4; SK-MEL-28; HOP-62; SW-620; SN12C; SNB-75; U-251; SK-MEL-2; A549; EKVX; SK-OV-3; LOX IMVI; NCI/ADR-RES; MCF7.
What all share (assay): DTP human tumour cell line panel, 48 h

`N=C(N)NS(=O)(=O)c1ccc(NC(=O)c2cccc3cc4ccccc4nc23)cc1`: the GI50 is > 100 µM (inactive) with HT-29; > 100 µM (inactive) with A498; 6.56 µM (inactive) in the test with CCRF-CEM; 5.55 µM (inactive) in the test on MOLT-4; > 100 µM (inactive) in the test on SK-MEL-28; 94.2 µM (inactive) in the test with HOP-62. Moreover, the GI50 in the test on SW-620 was 66.8 µM (inactive); with SN12C, > 100 µM (inactive); in the test on SNB-75, 95.1 µM (inactive); in the test with U-251 it was 87.7 µM (inactive); in the test on SK-MEL-2, > 100 µM (inactive); in the test on A549, > 100 µM (inactive). In addition, the GI50 is > 100 µM (inactive) in the test with EKVX, > 100 µM (inactive) in the test with SK-OV-3 and 51.5 µM (inactive) in the test on LOX IMVI.

Take `CCOC(=O)Cn1c(=O)[nH]c(=O)c2c1ncn2Cc1ccccc1`: the GI50 in the test on HT-29, with A498, with CCRF-CEM, in the test with MOLT-4, with SK-MEL-28 and with HOP-62 was > 100 µM (inactive) throughout. In addition, the GI50 in the test on SW-620, with SN12C, in the test on SNB-75, in the test with U-251, in the test with SK-MEL-2 and in the test on A549 was > 100 µM (inactive) throughout. For the same molecule, the GI50 with EKVX, in the test with SK-OV-3 and with LOX IMVI was > 100 µM (inactive) each time.

On to `Cc1cccc(-n2c(N)c(-c3nc4ccccc4[nH]3)sc2=S)c1`, for which the GI50 with HT-29 is 23.1 µM (inactive); in the test with A498 it was 89.3 µM (inactive); with CCRF-CEM, 32.2 µM (inactive); with MOLT-4, 20.6 µM (inactive); in the test on SK-MEL-28, 37 µM (inactive); in the test on HOP-62, 29.6 µM (inactive). The GI50 was 31.4 µM (inactive) with SW-620; 25.3 µM (inactive) in the test on SN12C; 50 µM (inactive) with SNB-75; 21.8 µM (inactive) in the test with U-251; 23.7 µM (inactive) in the test with SK-MEL-2; 28.2 µM (inactive) in the test with A549. Besides, the GI50 is 48.4 µM (inactive) in the test on EKVX, 47.9 µM (inactive) with SK-OV-3 and 26.8 µM (inactive) in the test on LOX IMVI.

Turning to `NC1C2(CCCCCC2)NC(=O)C12CCCCCC2` (stereo not given), the GI50 in the test with HT-29, with A498, with CCRF-CEM, in the test on MOLT-4, with SK-MEL-28 and in the test on HOP-62 was > 100 µM (inactive) throughout. In addition, the GI50 in the test on SW-620, in the test on SN12C, with SNB-75, with U-251, in the test on SK-MEL-2 and with A549 was > 100 µM (inactive) each time. Besides, the GI50 in the test with EKVX, with SK-OV-3 and in the test on LOX IMVI was > 100 µM (inactive) in each case.

On to `Cc1nc2ccccc2nc1CC(=O)C(=O)Nc1ccc(Cl)cc1Cl`, for which the GI50 in the test with A498, in the test with CCRF-CEM, in the test with MOLT-4, in the test on SK-MEL-28, with HOP-62 and in the test on SW-620 was > 100 µM (inactive) in each case. Also, the GI50 in the test with SN12C, with SNB-75, in the test with U-251, in the test on SK-MEL-2, in the test with A549 and with EKVX was > 100 µM (inactive) in each case. The GI50 in the test on SK-OV-3 and in the test with LOX IMVI was > 100 µM (inactive) throughout.

Regarding `CC(=O)Nc1[nH]n(C)c(=O)c1-c1nnc(C)s1`, the GI50 with HT-29, in the test with A498, in the test on CCRF-CEM, with MOLT-4, with SK-MEL-28 and in the test on HOP-62 was > 100 µM (inactive) each time. The GI50 in the test on SW-620, with SN12C, in the test with SNB-75, in the test with U-251, in the test on SK-MEL-2 and in the test with A549 was > 100 µM (inactive) in each case. Further, the GI50 in the test on EKVX, in the test on SK-OV-3 and in the test with LOX IMVI was > 100 µM (inactive) throughout.

As to `CC1OC(OC2C(CO)OC(O[C@H]3CC[C@@]4(C)C(=CC[C@H]5[C@@H]6C[C@@H]7O[C@]8(CC[C@@H](C)CN8)[C@@H](C)[C@@H]7[C@@]6(C)CC[C@@H]54)C3)C(O)C2O)C(O)C(O)C1O` (stereo not given in full), the GI50 is > 100 µM (inactive) with HT-29; > 100 µM (inactive) in the test on A498; > 100 µM (inactive) with CCRF-CEM; > 100 µM (inactive) in the test on MOLT-4; 31.8 µM (inactive) in the test with SK-MEL-28; > 100 µM (inactive) in the test on HOP-62. Further, the GI50 in the test on SW-620 is > 100 µM (inactive); in the test with SN12C, > 100 µM (inactive); in the test with SNB-75, 42.1 µM (inactive); in the test on U-251, > 100 µM (inactive); in the test on SK-MEL-2 it was > 100 µM (inactive); in the test on A549 it was > 100 µM (inactive). Further, the GI50 in the test on EKVX is 76 µM (inactive); with SK-OV-3, > 100 µM (inactive); in the test on LOX IMVI it was > 100 µM (inactive).

Consider `CN/C(=N/C#N)NCc1ccccc1`, for which the GI50 with HT-29, in the test on A498, with CCRF-CEM, in the test on MOLT-4, in the test with SK-MEL-28 and in the test on HOP-62 was > 100 µM (inactive) each time. For the same molecule, the GI50 with SW-620, in the test on SN12C, in the test on SNB-75, in the test on U-251, with SK-MEL-2 and with A549 was > 100 µM (inactive) in each case. The GI50 was 0.0512 µM (active) in the test on EKVX, > 100 µM (inactive) in the test with SK-OV-3 and > 100 µM (inactive) in the test with LOX IMVI.

For the molecule `CNC(=O)OCc1nc([S+](C)[O-])n(C)c1COC(=O)NC` (stereo not given), the GI50 is > 100 µM (inactive) in the test on NCI/ADR-RES; > 100 µM (inactive) in the test with HT-29; 38.7 µM (inactive) in the test on A498; > 100 µM (inactive) with CCRF-CEM; > 100 µM (inactive) in the test with MOLT-4; > 100 µM (inactive) in the test with SK-MEL-28. The GI50 is > 100 µM (inactive) in the test on HOP-62; > 46.5 µM (inactive) with SW-620; > 100 µM (inactive) with SN12C; > 100 µM (inactive) with SNB-75; > 100 µM (inactive) in the test on U-251; > 100 µM (inactive) in the test on SK-MEL-2. For the same molecule, the GI50 was > 46.5 µM (inactive) in the test on A549; > 100 µM (inactive) in the test on EKVX; > 100 µM (inactive) in the test on MCF7; > 44.1 µM (inactive) with SK-OV-3; > 100 µM (inactive) with LOX IMVI.

As for `NC(=O)c1c(-c2ccccc2)c(-c2ccccc2)cc2c(=O)c3ccccc3[nH]c12`, the GI50 in the test on HT-29 was 18.9 µM (inactive); with A498, 19.4 µM (inactive); in the test on CCRF-CEM it was 31.4 µM (inactive); in the test on MOLT-4, 16.4 µM (inactive); with SK-MEL-28, 17.8 µM (inactive); in the test on HOP-62, 24.2 µM (inactive). For the same molecule, the GI50 in the test on SW-620 is 37.1 µM (inactive); with SN12C, 40 µM (inactive); in the test with SNB-75, 23.6 µM (inactive); with U-251, 31.7 µM (inactive); in the test with SK-MEL-2 it was 19.9 µM (inactive); with A549, 23.8 µM (inactive). Moreover, the GI50 was 41.2 µM (inactive) with EKVX, 25.3 µM (inactive) in the test on SK-OV-3 and 45.5 µM (inactive) in the test on LOX IMVI.

Consider `O=C1C2=C(N[C@@H](c3ccccc3)[C@H](c3ccccc3)N2)C(=O)c2ccccc21`, for which the GI50 in the test with HT-29, in the test with A498, with CCRF-CEM, in the test on MOLT-4, in the test with SK-MEL-28 and in the test with HOP-62 was > 100 µM (inactive) in each case. For the same molecule, the GI50 in the test with SW-620 is > 100 µM (inactive); in the test on SN12C, > 100 µM (inactive); with SNB-75, 51.8 µM (inactive); in the test on U-251, > 100 µM (inactive); in the test with SK-MEL-2, > 100 µM (inactive); with A549 it was > 100 µM (inactive). In addition, the GI50 in the test with SK-OV-3 and in the test with LOX IMVI was > 100 µM (inactive) throughout.

Turning to `CC12CC(=O)NN=C1c1ccccc1C2` (stereo not given), the GI50 in the test on HT-29, in the test on A498, in the test on CCRF-CEM, in the test on MOLT-4, in the test on SK-MEL-28 and with HOP-62 was > 100 µM (inactive) throughout. For the same molecule, the GI50 in the test on SW-620, in the test on SN12C, with SNB-75, with U-251, in the test on SK-MEL-2 and in the test on A549 was > 100 µM (inactive) in each case. Besides, the GI50 with EKVX was 98.2 µM (inactive); with SK-OV-3, > 100 µM (inactive); in the test with LOX IMVI, > 100 µM (inactive).

For `Cc1cc(N(CCC#N)CCC#N)ccc1/C(Sc1ccccc1)=C(\NC(=O)/C=C/c1ccccc1)C(=O)Sc1ccccc1`, the GI50 is 2.91 µM (inactive) with HT-29; 4.06 µM (inactive) in the test with A498; 0.271 µM (active) in the test on CCRF-CEM; 0.557 µM (active) in the test with MOLT-4; 4.99 µM (inactive) with SK-MEL-28; 2.56 µM (inactive) in the test with HOP-62. The GI50 in the test on SW-620 was 4.12 µM (inactive); with SN12C, 1.7 µM (inactive); in the test on SNB-75, 2.13 µM (inactive); in the test on U-251, 0.82 µM (active); in the test on SK-MEL-2, 3.42 µM (inactive); in the test on A549, 2.02 µM (inactive). For the same molecule, the GI50 with EKVX was 6.18 µM (inactive); in the test with SK-OV-3, 5.55 µM (inactive); in the test with LOX IMVI it was 0.83 µM (active).
